Assay results as given in patent US10131702B2, “Glucagon-GLP-1-GIP triple agonist compounds” (priority 2013, dated 2018).
Where two headings read alike, the source gives them in different places. Numbered stars: 1 amine (or outer) side, 2 acyl side, 3 side chain; on linkers, the order of the positions; unused ones are H or OH. Square brackets hold non-standard residues; d marks the D form. Side chains are listed from the residue outwards. Peptide text beside a SMILES is read from it. * marks the point of attachment. C18 diacid = O=C(O)CCCCCCCCCCCCCCCCC(=O)*; γGlu = O=C(O)[C@H](CCC(=O)[*:2])N[*:1]; Stearoyl = CCCCCCCCCCCCCCCCCC(=O)*; AEEA = NCCOCCOCC(=O)O; Aib = CC(C)(N)C(=O)O

Legend:
Type in all cases: cell-based
[1] = target: T1, human GLP-1 R (Homo sapiens, UniProt P43220); experiment: cAMP induction in HEK293 cells expressing human GLP-1 R (AlphaScreen cAMP kit); conditions: average EC50, cAMP, HEK293 cells expressing human GLP-1 R, read-out: GLP1 R (EC50 in nM)
T1 construct: expressed in transfected cells
T1 sequence (P43220 24-463): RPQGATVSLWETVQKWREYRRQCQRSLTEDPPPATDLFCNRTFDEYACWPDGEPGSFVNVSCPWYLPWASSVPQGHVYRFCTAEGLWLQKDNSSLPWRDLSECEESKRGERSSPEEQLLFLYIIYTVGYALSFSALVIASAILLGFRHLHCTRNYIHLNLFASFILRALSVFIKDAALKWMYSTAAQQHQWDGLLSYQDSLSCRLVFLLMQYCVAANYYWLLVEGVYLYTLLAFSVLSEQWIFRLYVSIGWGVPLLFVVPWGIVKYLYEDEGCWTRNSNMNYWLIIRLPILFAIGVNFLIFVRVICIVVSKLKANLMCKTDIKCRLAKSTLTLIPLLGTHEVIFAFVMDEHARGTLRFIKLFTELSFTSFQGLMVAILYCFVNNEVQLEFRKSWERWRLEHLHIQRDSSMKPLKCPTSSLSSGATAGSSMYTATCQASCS

[2] = target: T2, human GIP R (Homo sapiens, UniProt P48546); experiment: cAMP induction in HEK293 cells expressing human GIP R (AlphaScreen cAMP kit)
T2 construct: expressed in transfected cells
T2 sequence (P48546 22-466): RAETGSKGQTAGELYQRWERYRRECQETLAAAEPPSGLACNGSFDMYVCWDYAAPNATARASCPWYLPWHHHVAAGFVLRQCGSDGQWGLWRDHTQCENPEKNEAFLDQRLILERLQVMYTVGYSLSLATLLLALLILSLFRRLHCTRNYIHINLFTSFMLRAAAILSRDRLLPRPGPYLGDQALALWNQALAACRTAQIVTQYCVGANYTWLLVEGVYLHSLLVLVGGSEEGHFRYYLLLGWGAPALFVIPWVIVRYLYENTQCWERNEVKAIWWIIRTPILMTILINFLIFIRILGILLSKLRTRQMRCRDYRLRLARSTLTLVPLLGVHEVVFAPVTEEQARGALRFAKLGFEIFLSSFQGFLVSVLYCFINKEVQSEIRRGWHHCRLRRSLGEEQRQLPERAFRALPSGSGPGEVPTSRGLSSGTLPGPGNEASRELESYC

[3] = target: T3, human GCG R (Homo sapiens, UniProt P47871); experiment: cAMP induction in HEK293 cells expressing human GCG R (AlphaScreen cAMP kit)
T3 construct: expressed in transfected cells
T3 sequence (P47871 26-477): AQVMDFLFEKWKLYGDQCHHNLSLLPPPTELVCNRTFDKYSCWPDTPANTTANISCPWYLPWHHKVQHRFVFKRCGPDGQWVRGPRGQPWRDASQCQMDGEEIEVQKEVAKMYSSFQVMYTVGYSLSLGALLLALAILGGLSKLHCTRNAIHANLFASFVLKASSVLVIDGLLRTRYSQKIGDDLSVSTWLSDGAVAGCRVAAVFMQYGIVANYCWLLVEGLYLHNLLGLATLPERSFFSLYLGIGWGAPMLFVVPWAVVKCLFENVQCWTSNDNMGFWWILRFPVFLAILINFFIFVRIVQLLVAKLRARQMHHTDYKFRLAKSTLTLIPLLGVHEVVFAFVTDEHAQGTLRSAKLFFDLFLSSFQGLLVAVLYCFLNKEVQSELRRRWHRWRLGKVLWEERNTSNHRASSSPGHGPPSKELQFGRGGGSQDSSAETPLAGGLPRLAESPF

[4] = Table 2b (most comprehensive data)
[5] = Table 2, average EC50, cAMP, read-out: GIP R (EC50 in nM)
[6] = Table 2b (most comprehensive data), average EC50, cAMP, read-out: GIP R (EC50 in nM)
[7] = Table 2, average EC50, cAMP, HEK293 cells expressing human GCG R, read-out: GCG R (EC50 in nM)
[8] = GIP R (EC50 in nM), Table 2, average EC50, cAMP
[9] = Table 2b (most comprehensive data), average EC50, cAMP, HEK293 cells expressing human GCG R, read-out: GCG R (EC50 in nM)

Structure (SMILES)	EC50 ([1]; Table 2)	EC50 [1, 4]	EC50 [2, 5]	EC50 [2, 6]	EC50 [3, 7]	EC50 [2, 8]	EC50 ([2]; GIP R (EC50 in nM), Table 2b (most comprehensive data), average EC50, cAMP)	EC50 [3]	EC50 [3, 9]
CCCCCCCCCCCCCCCC(=O)N[C@@H](CCC(=O)NCCCC[C@H](NC(=O)[C@H](CO)NC(=O)[C@H](CC(=O)O)NC(=O)[C@H](CC(C)C)NC(=O)[C@H](Cc1ccc(O)cc1)NC(=O)[C@@H](NC(=O)[C@H](CO)NC(=O)[C@H](Cc1ccc(O)cc1)NC(=O)[C@H](CC(=O)O)NC(=O)[C@H](CO)NC(=O)[C@@H](NC(=O)[C@H](Cc1ccccc1)NC(=O)[C@@H](NC(=O)CNC(=O)[C@H](CCC(N)=O)NC(=O)C(C)(C)NC(=O)[C@@H](N)Cc1ccc(O)cc1)[C@@H](C)O)[C@@H](C)O)[C@@H](C)CC)C(=O)N[C@@H](C)C(=O)N[C@@H](C)C(=O)N[C@@H](Cc1c[nH]cn1)C(=O)N[C@@H](CC(=O)O)C(=O)N[C@@H](Cc1ccccc1)C(=O)N[C@H](C(=O)N[C@@H](CCC(=O)O)C(=O)N[C@@H](Cc1c[nH]c2ccccc12)C(=O)N[C@@H](CC(C)C)C(=O)N[C@@H](CC(C)C)C(=O)N[C@@H](CCCNC(=N)N)C(=O)N[C@@H](C)C(N)=O)C(C)C)C(=O)O [Compound 27] (HELM PEPTIDE1{Y.[Aib].Q.G.T.F.T.S.D.Y.S.I.Y.L.D.S.K.A.A.H.D.F.V.E.W.L.L.R.A.[am]}|PEPTIDE2{[CCCCCCCCCCCCCCCC(=O)[*:2]].[gGlu]}$PEPTIDE1,PEPTIDE2,17:R3-2:R2$$$V2.0)	0.16 nM	0.07 nM	0.12 nM	0.16 nM	0.07 nM	–	–	–	–
CC[C@H](C)[C@H](NC(=O)[C@H](CO)NC(=O)[C@H](Cc1ccc(O)cc1)NC(=O)[C@H](CC(=O)O)NC(=O)[C@H](CO)NC(=O)[C@@H](NC(=O)[C@H](Cc1ccccc1)NC(=O)[C@@H](NC(=O)CNC(=O)[C@H](CCC(N)=O)NC(=O)C(C)(C)NC(=O)[C@@H](N)Cc1ccc(O)cc1)[C@@H](C)O)[C@@H](C)O)C(=O)N[C@@H](Cc1ccc(O)cc1)C(=O)N[C@@H](CC(C)C)C(=O)N[C@@H](CC(=O)O)C(=O)N[C@@H](CO)C(=O)N[C@@H](CCCCN)C(=O)N[C@@H](C)C(=O)N[C@@H](C)C(=O)N[C@@H](Cc1c[nH]cn1)C(=O)N[C@@H](CC(=O)O)C(=O)N[C@@H](Cc1ccccc1)C(=O)N[C@H](C(=O)N[C@@H](CCC(=O)O)C(=O)N[C@@H](Cc1c[nH]c2ccccc12)C(=O)N[C@@H](CC(C)C)C(=O)N[C@@H](CC(C)C)C(=O)N[C@@H](CO)C(=O)N[C@@H](C)C(=O)NCC(=O)N1CCC[C@H]1C(=O)N[C@@H](CO)C(=O)N[C@@H](CO)C(=O)NCC(=O)N[C@@H](C)C(=O)N1CCC[C@H]1C(=O)N1CCC[C@H]1C(=O)N1CCC[C@H]1C(=O)N[C@@H](CO)C(N)=O)C(C)C [Compound 13] (HELM PEPTIDE1{Y.[Aib].Q.G.T.F.T.S.D.Y.S.I.Y.L.D.S.K.A.A.H.D.F.V.E.W.L.L.S.A.G.P.S.S.G.A.P.P.P.S.[am]}$$$$V2.0)	0.0099 nM	–	0.083 nM	0.01 nM	0.24 nM	–	–	–	–
CC[C@H](C)[C@H](NC(=O)[C@H](CO)NC(=O)[C@H](Cc1ccc(O)cc1)NC(=O)[C@H](CC(=O)O)NC(=O)[C@H](CO)NC(=O)[C@@H](NC(=O)[C@H](Cc1ccccc1)NC(=O)[C@@H](NC(=O)CNC(=O)[C@H](CCC(N)=O)NC(=O)C(C)(C)NC(=O)[C@@H](N)Cc1ccc(O)cc1)[C@@H](C)O)[C@@H](C)O)C(=O)N[C@@H](Cc1ccc(O)cc1)C(=O)N[C@@H](CC(C)C)C(=O)N[C@@H](CC(=O)O)C(=O)N[C@@H](CCCCN)C(=O)N[C@@H](CCCCN)C(=O)N[C@@H](C)C(=O)N[C@@H](C)C(=O)N[C@@H](Cc1c[nH]cn1)C(=O)N[C@@H](CC(=O)O)C(=O)N[C@@H](Cc1ccccc1)C(=O)N[C@H](C(=O)N[C@@H](CCC(=O)O)C(=O)N[C@@H](Cc1c[nH]c2ccccc12)C(=O)N[C@@H](CC(C)C)C(=O)N[C@@H](CC(C)C)C(=O)N[C@@H](CO)C(=O)N[C@@H](C)C(N)=O)C(C)C [Compound 19] (HELM PEPTIDE1{Y.[Aib].Q.G.T.F.T.S.D.Y.S.I.Y.L.D.K.K.A.A.H.D.F.V.E.W.L.L.S.A.[am]}$$$$V2.0)	0.013 nM	0.024 nM	–	–	–	0.032 nM	0.013 nM	0.024 nM	–
CC[C@H](C)[C@H](NC(=O)[C@H](CO)NC(=O)[C@H](Cc1ccc(O)cc1)NC(=O)[C@H](CC(=O)O)NC(=O)[C@H](CO)NC(=O)[C@@H](NC(=O)[C@H](Cc1ccccc1)NC(=O)[C@@H](NC(=O)CNC(=O)[C@H](CCC(N)=O)NC(=O)C(C)(C)NC(=O)[C@@H](N)Cc1ccc(O)cc1)[C@@H](C)O)[C@@H](C)O)C(=O)N[C@@H](Cc1ccc(O)cc1)C(=O)N[C@@H](CC(C)C)C(=O)N[C@@H](CC(=O)O)C(=O)N[C@@H](CCC(=O)O)C(=O)N[C@@H](CCCCN)C(=O)N[C@@H](C)C(=O)N[C@@H](C)C(=O)N[C@@H](Cc1c[nH]cn1)C(=O)N[C@@H](CC(=O)O)C(=O)N[C@@H](Cc1ccccc1)C(=O)N[C@H](C(=O)N[C@@H](CCC(=O)O)C(=O)N[C@@H](Cc1c[nH]c2ccccc12)C(=O)N[C@@H](CC(C)C)C(=O)N[C@@H](CC(C)C)C(=O)N[C@@H](CO)C(=O)N[C@@H](C)C(N)=O)C(C)C [Compound 9] (HELM PEPTIDE1{Y.[Aib].Q.G.T.F.T.S.D.Y.S.I.Y.L.D.E.K.A.A.H.D.F.V.E.W.L.L.S.A.[am]}$$$$V2.0)	0.0055 nM	–	–	–	–	0.056 nM	–	0.097 nM	–
CC[C@H](C)[C@H](NC(=O)[C@H](CO)NC(=O)[C@H](Cc1ccc(O)cc1)NC(=O)[C@H](CC(=O)O)NC(=O)[C@H](CO)NC(=O)[C@@H](NC(=O)[C@H](Cc1ccccc1)NC(=O)[C@@H](NC(=O)CNC(=O)[C@H](CCC(N)=O)NC(=O)C(C)(C)NC(=O)[C@@H](N)Cc1ccc(O)cc1)[C@@H](C)O)[C@@H](C)O)C(=O)N[C@@H](Cc1ccc(O)cc1)C(=O)N[C@@H](CC(C)C)C(=O)N[C@@H](CCC(=O)O)C(=O)N[C@@H](CCCCN)C(=O)N[C@@H](CCCCNC(=O)COCCOCCNC(=O)COCCOCCNC(=O)CC[C@H](NC(=O)CCCCCCCCCCCCCCCCC(=O)O)C(=O)O)C(=O)N[C@@H](C)C(=O)N[C@@H](CCC(N)=O)C(=O)N[C@@H](CCCNC(=N)N)C(=O)N[C@@H](C)C(=O)N[C@@H](Cc1ccccc1)C(=O)N[C@H](C(=O)N[C@@H](CCC(=O)O)C(=O)N[C@@H](Cc1c[nH]c2ccccc12)C(=O)N[C@@H](CC(C)C)C(=O)N[C@@H](CC(C)C)C(=O)N[C@@H](CCCNC(=N)N)C(=O)N[C@@H](C)C(N)=O)C(C)C [Compound 51] (H-Y[Aib]QGTFTSDYSIYLEKK([AEEA-AEEA-γGlu-C18 diacid])AQRAFVEWLLRA-NH2)	–	0.026 nM	–	0.033 nM	–	–	–	–	1.4 nM
CCCCCCCCCCCCCCCCCC(=O)N[C@@H](CCC(=O)NCCOCCOCC(=O)NCCOCCOCC(=O)NCCCC[C@H](NC(=O)[C@H](CCCCN)NC(=O)[C@H](CCC(=O)O)NC(=O)[C@H](CC(C)C)NC(=O)[C@H](C)NC(=O)[C@@H](NC(=O)[C@H](CO)NC(=O)[C@H](CC(C)C)NC(=O)[C@H](CC(=O)O)NC(=O)[C@H](CO)NC(=O)[C@@H](NC(=O)[C@H](Cc1ccccc1)NC(=O)[C@@H](NC(=O)CNC(=O)[C@H](CCC(N)=O)NC(=O)C(C)(C)NC(=O)[C@@H](N)Cc1ccc(O)cc1)[C@@H](C)O)[C@@H](C)O)[C@@H](C)CC)C(=O)N[C@@H](C)C(=O)N[C@@H](CCC(N)=O)C(=O)N[C@@H](CCCNC(=N)N)C(=O)N[C@@H](C)C(=O)N[C@@H](Cc1ccccc1)C(=O)N[C@H](C(=O)N[C@@H](CCC(=O)O)C(=O)N[C@@H](Cc1c[nH]c2ccccc12)C(=O)N[C@@H](CC(C)C)C(=O)N[C@@H](CC(C)C)C(=O)N[C@@H](C)C(=O)N[C@@H](CCC(N)=O)C(=O)N[C@@H](CCCCN)C(N)=O)C(C)C)C(=O)O [Compound 48] (H-Y[Aib]QGTFTSDLSIALEKK([AEEA-AEEA-γGlu-Stearoyl])AQRAFVEWLLAQK-NH2)	–	0.013 nM	–	0.013 nM	–	–	–	–	0.19 nM
CCCCCCCCCCCCCCCC(=O)N[C@@H](CCC(=O)NCCCC[C@H](NC(=O)[C@H](CCCCN)NC(=O)[C@H](CCC(=O)O)NC(=O)[C@H](CC(C)C)NC(=O)[C@H](Cc1ccc(O)cc1)NC(=O)[C@@H](NC(=O)[C@H](CO)NC(=O)[C@H](Cc1ccc(O)cc1)NC(=O)[C@H](CC(=O)O)NC(=O)[C@H](CO)NC(=O)[C@@H](NC(=O)[C@H](Cc1ccccc1)NC(=O)[C@@H](NC(=O)CNC(=O)[C@H](CCC(N)=O)NC(=O)C(C)(C)NC(=O)[C@@H](N)Cc1ccc(O)cc1)[C@@H](C)O)[C@@H](C)O)[C@@H](C)CC)C(=O)N[C@@H](C)C(=O)N[C@@H](C)C(=O)N[C@@H](CCCCN)C(=O)N[C@@H](CCC(=O)O)C(=O)N[C@@H](Cc1ccccc1)C(=O)N[C@H](C(=O)N[C@@H](CCC(=O)O)C(=O)N[C@@H](Cc1c[nH]c2ccccc12)C(=O)N[C@@H](CC(C)C)C(=O)N[C@@H](CC(C)C)C(=O)N[C@@H](CO)C(=O)N[C@@H](C)C(N)=O)C(C)C)C(=O)O [Compound 23] (HELM PEPTIDE1{Y.[Aib].Q.G.T.F.T.S.D.Y.S.I.Y.L.E.K.K.A.A.K.E.F.V.E.W.L.L.S.A.[am]}|PEPTIDE2{[CCCCCCCCCCCCCCCC(=O)[*:2]].[gGlu]}$PEPTIDE1,PEPTIDE2,17:R3-2:R2$$$V2.0)	0.11 nM	–	0.13 nM	–	0.14 nM	–	–	–	–
